Legend:
[1] = tested on: neutrophilic granulocytes, lymphocytes and macrophages; test: Preliminary rapid test: immunostimulant effect; format: in vivo, CFLP male mice; settings: oral, one-tenth of LD50; 24 hours
[2] = tested on: neutrophylic granulocytes and limphocytes; settings: mouse, in vivo, po
[3] = in vivo
[4] = tested on: NK-yl ascites tumor; test: Combinations with known cytostatic agents in NK-ly ascites tumor; format: in vivo, CFLP mice; settings: with cyclophosphamide, carnomustine, degranol, dibromo dulcitol or dibromo mannitol
[5] = tested on: NK-ly-ascites lymphoma; test: NK-ly-ascites lymphoma in vivo; parameters: species or system CFLP male mice; settings: for Activity against NK-ly-ascites tumor: concentration below one-tenth of the LD50 value; for Survival rate and lifetime: dose-dependant

| Structure (SMILES) | Immunostimulant effect [1] | Toxic effect [2] | LD50 at 24 h ([3]; po) [mg/kg] | Antitumor effect of combination vs cytostatic agent alone [4] | Immunodepression of combination vs cytostatic agent alone [4] | Activity against NK-ly-ascites tumor [5] | Survival rate and lifetime [5] | LD50 at 24 h ([3]; ip) [mg/kg] |
| --- | --- | --- | --- | --- | --- | --- | --- | --- |
| N=C(N)NC(=N)SCCCO [Example 29, N-aminoiminomethyl-S-(3-hydroxy-propyl)-isothiuronium bromide] | medium (Medium effect is observed if the increase of cell number or activity over the control amounts to 20%) | 0 | 2860 ± 180 | – | – | – | – | – |
| C#CCSC(=N)NC(=N)N [Example 31, N-aminoiminomethyl-S-propargyl-isothuronium bromide] | – | – | 90 | – | – | – | – | – |
| CCCSC(=N)NC(=N)N [Example 10, N-Aminoiminomethyl-S-n-Propyl-Isothuronium Bromide] | medium (Medium effect is observed if the increase of cell number or activity over the control amounts to 20%) | 0 | 2800 ± 260 | – | – | – | – | – |
| CCSC(=N)NC(=N)N [Example 23, N-aminoiminomethyl-S-ethyl-isothiuronium bromide] | strong (The effect is strong if the increase of the cell number and activity of the immune system is more than 20% higher than the control) | 0 | 3080 ± 290 | – | – | – | – | – |
| CC(C)CCSC(=N)NC(=N)N [Example 26, N-aminoiminomethyl-S-isoamyl-isothiuronium bromide] | medium (Medium effect is observed if the increase of cell number or activity over the control amounts to 20%) | 0 | 2260 ± 241 | – | – | – | – | – |
| C=CCN=C(NC(=N)N)SCC=C [Example 45, N-(Aminoiminomethyl)-N'-Allyl-S-Allyl-Isothiuronium Bromide] | weak | 0 | 380 ± 41 | the antitumor effect was strengthened | immunodepression decreased | active agains Nk-ly-ascites tumor in a concentration below one-tenth of the LD50 value | increase survival rate and lifetime in a dose-dependant manner | 36 ± 4 |
| C=CCSC(=NC(C)C)NC(=N)N [Example 21, N-aminoiminomethyl-N'-Isopropyl-S-Allyl-Isothiuronium Chloride] | weak | 0 | 280 ± 26 | – | – | – | – | 32 ± 4 |
| CCCCSC(=N)NC(=N)N [Example 25, N-aminoiminomethyl-S-n-butyl-isothiuronium bromide] | medium (Medium effect is observed if the increase of cell number or activity over the control amounts to 20%) | 0 | 2700 ± 310 | – | – | – | – | – |
| C=CCSC(=NC)NC(=N)N [Example 20, N-Aminoiminomethyl-N'-Methyl-S-Allyl-Isothiuronium Chloride] | weak | 0 | 600 ± 54 | – | – | active agains Nk-ly-ascites tumor in a concentration below one-tenth of the LD50 value | increase survival rate and lifetime in a dose-dependant manner | 75 ± 6.3 |
| CC(C)SC(=N)NC(=N)N [Example 24, N-aminoiminomethyl-S-isopropyl-isothiuronium bromide] | medium (Medium effect is observed if the increase of cell number or activity over the control amounts to 20%) | 0 | 2260 ± 210 | – | – | – | – | – |
| CSC(=N)NC(=N)N [Example 9, N-Aminoiminomethyl-S-Methyl-Isothiuronium Iodide] | medium (Medium effect is observed if the increase of cell number or activity over the control amounts to 20%) | – | 2320 ± 220 | – | – | – | – | – |
| C=C(C)CSC(=N)NC(=N)N [Example 44, N-(Aminoiminomethyl)-S-Metallyl-Isothiuronium-Bromide] | medium (Medium effect is observed if the increase of cell number or activity over the control amounts to 20%) | 0 | 1640 ± 210 | – | – | – | – | – |
